Tested on: 40 L of mesothelioma cell lines
Experiment: cell plate cloning experiment to detect cell proliferation
Type: cell-based
Details: 30 μM pretreatment; 200 cells/well; results after 10 days; compared with gefitinib 30 μM; FIG. 2
Experimental: Effects of the compound prepared in Example 1 and gefitinib were tested and compared. Experiment 1 included cell plate cloning experiments to detect cell proliferation.
• (1) 30 μM of gefitinib was used to pretreat one group of 40 L of mesothelioma cell lines, 30 μM of the compound prepared in Example 1 were used to pretreat another group of 40 L of mesothelioma cell lines, and phosphate-buffered saline (PBS) was used as a blank control group; • (2) The 40 L of cell lines in different treatment groups were collected; the cells were counted under a microscope, the cells were inoculated in a six-well plate by adjusting the number of cells to 200 cells/well (2 mL) with corresponding complete medium, and the cells were cultured in an incubator containing 5% CO2 at 37° C.; • (3) Fresh complete medium was changed every 3 days; • (4) After about 7-10 days of continuous culture, the culture medium was discarded, the cells were carefully washed with 1×PBS 3 times, and 1 mL of 4% paraformaldehyde was added to each culture dish to fix the cells for 30 minutes. The paraformaldehyde was discarded, and the cells were washed again with 1×PBS 3 times. The cells were stained with crystal violet at room temperature for 10 min, the staining solution was discarded, and the cells were washed with 1×PBS 3 times; and • (5) the cells were pictured with a camera and counted for statistical analysis. 2. […]

`COc1cc2ncnc(Nc3ccc(F)c(Cl)c3)c2cc1NC(=O)CBr` [Example 1, 4-((4-fluoro-3-chlorophenyl)amino)-7-methoxy-6-((N-bromoacetyl)amino)quinazoline] was tested, and the “ability in inhibiting the proliferation of tumor cells (plate cloning, colony count)” value was “significantly better ability in inhibiting the proliferation of tumor cells than gefitinib”.

Source: patent US12435045B2, “Tyrosine kinase inhibitors and pharmaceutical application thereof” (JIANGSU CONCORD BIOTECHNOLOGY CO., LTD, priority 2021, dated 2025)
